# Earlier results, collected in patent publication US20030176421A1, “PROKINETIC AGENTS FOR TREATING GASTRIC HYPOMOTILITY AND RELATED DISORDERS” (priority 1999, published 2003).
# No end group written: not given here.
# Assays:
# [1] = test system: pig gastric fundus
# [2] = test system: guinea-pig gastric muscle; conditions: without altering membrane potential significantly
# [3] = test system: canine colonic smooth muscle; conditions: in the presence of forskolin; concentration dependent
# [4] = test system: guinea pig ileum longitudinal muscle; conditions: potentiation at lower doses, inhibition at higher concentrations for theophylline; entire concentration range for the others
# [5] = test system: isolated canine internal anal sphincter
# [6] = test system: sensitized guinea-pig colon
# [7] = test system: cat lower oesophageal sphincter; conditions: for cAMP and cGMP levels after exposure: cat LOS; for relaxation of circular smooth muscle (LOS): cat
# [8] = test system: human lower oesophageal sphincter
molecule,measurement,setting,value
"CC(C)Cn1c(=O)n(C)c(=O)c2[nH]cnc21 [IBMX, 3-isobutyl-1-methylxanthine]",relaxation of muscle strips,[1],induce concentration-dependent relaxations
same,effect on slow waves,[2],markedly reduce the frequency of slow waves
same,potency order for decrease in carbachol-induced contractile activity,[3],rolipram>Ro 20-1724>isobutyl methylxanthine>SB 94120>siguazodan>zaprinast
"[N]=O [NO, nitric oxide]",increase in cGMP content,[1],~40 fold
CCCCOc1cc(CC2CNC(=O)N2)ccc1OC (centres unmarked) [Ro 20-1724],potency order for decrease in carbachol-induced contractile activity,[3],rolipram>Ro 20-1724>isobutyl methylxanthine>SB 94120>siguazodan>zaprinast
COc1cc(C(=O)OCCCN2CCCN(CCCOC(=O)c3cc(OC)c(OC)c(OC)c3)CC2)cc(OC)c1OC [dilazep],effect on contractile response to transmural cholinergic nerve stimulation,[4],depression of the contractile responses
OCCN(CCO)c1nc(N2CCCCC2)c2nc(N(CCO)CCO)nc(N3CCCCC3)c2n1 [dipyridamole],effect on contractile response to transmural cholinergic nerve stimulation,[4],depression of the contractile responses
C=C[C@@]1(C)CC(=O)[C@]2(O)[C@@]3(C)[C@@H](O)CCC(C)(C)[C@@H]3[C@H](O)[C@H](OC(C)=O)[C@@]2(C)O1 [forskolin],relaxation of muscle strips,[1],induce concentration-dependent relaxations
same,relaxation by intrinsic inhibitory neurons and associated cGMP elevation,[5],blocked
COc1ccc(CN(CCN(C)C)c2ccccn2)cc1 [mepyramine],initial rapid response of antigen-induced contraction,[6],blocked
O=S(=O)(Nc1cccc(OCc2ccc3ccccc3n2)c1)C(F)(F)F [ritolukast],slower developing late contraction after antigen,[6],reduced
COc1ccc(C2CNC(=O)C2)cc1OC1CCCC1 (centres unmarked) [rolipram],effect on slow waves,[2],markedly reduce the frequency of slow waves
same,potency order for decrease in carbachol-induced contractile activity,[3],rolipram>Ro 20-1724>isobutyl methylxanthine>SB 94120>siguazodan>zaprinast
CN/C(=N\c1ccc(C2=NNC(=O)CC2C)cc1)NC#N (centres unmarked) [siguazodan],potency order for decrease in carbachol-induced contractile activity,[3],rolipram>Ro 20-1724>isobutyl methylxanthine>SB 94120>siguazodan>zaprinast
Cn1c(=O)c2[nH]cnc2n(C)c1=O [theophylline],effect on contractile response to transmural cholinergic nerve stimulation,[4],biphasic effect on cholinergic transmission
same,effect on slow waves,[2],markedly reduce the frequency of slow waves
CCCOc1ccccc1-c1nc2[nH]nnc2c(=O)[nH]1 [zaprinast],relaxation of muscle strips,[1],induce concentration-dependent relaxations
same,effect on NANC relaxations induced by electrical stimulation at intervals,"[1]; circular, but not longitudinal muscle strips",increases the duration of the NANC relaxations
same,potency order for decrease in carbachol-induced contractile activity,[3],rolipram>Ro 20-1724>isobutyl methylxanthine>SB 94120>siguazodan>zaprinast
helospectin,cAMP and cGMP levels after exposure,[7],both cAMP and cGMP levels were increased
pituitary adenylate cyclase activating peptide [PACAP],relaxation of circular smooth muscle (LOS),[7],induced concentration-dependent relaxations
same,cAMP and cGMP levels after exposure,[7],both cAMP and cGMP levels were increased
same,relaxation of circular smooth muscle (LOS),[8],induced concentration-dependent relaxations
"vasoactive intestinal peptide (HSDAVFTDNYTRLRKQMAVKKYLNSILN; ends and bridges not checked; UniProt P01282 125-152, looked up) [VIP]",relaxation of circular smooth muscle (LOS),[7],induced concentration-dependent relaxations
same,cAMP and cGMP levels after exposure,[7],increase in cAMP levels only
same,relaxation of circular smooth muscle (LOS),[8],induced concentration-dependent relaxations
